Literature values in patent publication US20240415113A1, “COMPOSITION AND METHOD FOR ATTRACTING VESPID WASPS” (BanfieldBio Inc., priority 2023, published 2024).

Tests used:
western yellowjackets = conditions: Oregon peach orchard, 10 days in 1969
vespid wasps = conditions: 50 μL heptyl butyrate and 1 g chicken meat extract, separately or together in the receiving chamber

In the case of `CCCCCCCOC(=O)CCC` [Heptyl butyrate], the “western yellowjackets captured per trap” value (western yellowjackets) is given as “over 800 western yellowjackets per trap” and the “trap catch comparison in words” value (vespid wasps) is given as “impeded entry into traps baited with the chicken extract”.
